Patent publication US11000033B2, “Ketone or oxime compound, and herbicide” (NISSAN CHEMICAL CORPORATION, priority 2014, dated 2021)

Columns and labels:
Format in all cases: in vivo
[1] = test system: Echinochloa oryzacola Vasing.; experiment: Test Example 1: herbicidal activity, application before weed generation in submerged conditions (symbol A); conditions: application herbicide amount 320 g/ha
How it was run: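 Application before weed emergence: an aqueous dilution of the emulsion formulation was poured onto the surface of 4 cm-deep floodwater on the day of sowing. Effect was judged after 3 weeks (greenhouse, 25–30 °C).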

Setaria viridis [2] = experiment: Test Example 4: herbicidal effect by soil treatment (symbol G)
How it was run: (§1)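 Seeds were sown in sterilized diluvial soil, covered with about 1.5 cm of soil, and the soil surface was sprayed with a water-diluted emulsion of the compound at a predetermined rate. Plants grew in a greenhouse at 25° C. to 30° C.; effects were scored visually 3 weeks after application.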

Alopecurus myosuroides [3] = experiment: Test Example 4: herbicidal effect by soil treatment (symbol J)
How it was run: as §1

Lolium multiflorum Lam. [4] = experiment: Test Example 4: herbicidal effect by soil treatment (symbol K)
How it was run: as §1

Apera spica-venti = experiment: Test Example 4: herbicidal effect by soil treatment (symbol L)
How it was run: as §1

Galium spurium = experiment: Test Example 4: herbicidal effect by soil treatment (symbol Q)
How it was run: as §1

Veronica persica [5] = experiment: Test Example 4: herbicidal effect by soil treatment (symbol R)
How it was run: as §1

corn = experiment: Test Example 4: effect on crop by soil treatment (symbol c)
How it was run: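 Diluvial soil (sterilized) in boxes; seeds placed spot-wise alongside weed species; ~1.5 cm covering soil. Greenhouse, 25–30° C.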

soybean [6] = experiment: Test Example 4: effect on crop by soil treatment (symbol d)
How it was run: (§2)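 Plants grew in a 25° C. to 30° C. greenhouse after spot-sowing of seeds, including beet, rapeseed, wheat and rice, into sterilized diluvial soil under roughly 1.5 cm of cover soil.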

rice = experiment: Test Example 4: effect on crop by soil treatment (symbol b)
How it was run: as §2

wheat = experiment: Test Example 4: effect on crop by soil treatment (symbol e)
How it was run: as §2

Setaria viridis [7] = experiment: Test Example 5: herbicidal effect by foliage application, plastic box (symbol G); conditions: 320 g/ha, 3 weeks after application
How it was run: (§3)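 Leaf-applied emulsion, water-diluted to a preset herbicide dose, on two-week-old seedlings raised in a 25° C. to 30° C. greenhouse; injury rated at 3 weeks using earlier criteria.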

Avena fatua = experiment: Test Example 5: herbicidal effect by foliage application, plastic box (symbol I); conditions: 320 g/ha, 3 weeks after application
How it was run: as §3

Alopecurus myosuroides [8] = experiment: Test Example 5: herbicidal effect by foliage application, plastic box (symbol J); conditions: 320 g/ha, 3 weeks after application
How it was run: as §3

Lolium multiflorum Lam. [9] = experiment: Test Example 5: herbicidal effect by foliage application, plastic box (symbol K); conditions: 320 g/ha, 3 weeks after application
How it was run: as §3

Veronica persica [10] = experiment: Test Example 5: herbicidal effect by foliage application, plastic box (symbol R); conditions: 320 g/ha, 3 weeks after application
How it was run: as §3

soybean [11] = experiment: Test Example 5: effect on crop by foliage application, plastic box (symbol d); conditions: 320 g/ha, 3 weeks after application
How it was run: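 Foliage-application test plants come from spot sowing in sterilized diluvial soil under a soil layer of about 1.5 cm, grown at 25° C. to 30° C. in a greenhouse.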

Cyperus difformis = experiment: Test Example 3: herbicidal effect by foliage application, Wagner pot (symbol E); conditions: application herbicide amount 320 g/ha, Table 24
How it was run: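 In a shallow-flooded alluvial soil system held at 25–30 °C, plants including rice grew for 14 days and were then sprayed over the foliage with emulsion diluted to a fixed herbicide amount. Visual rating followed at 3 weeks.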

Amaranthus retroflexus = experiment: Test Example 5: herbicidal effect by foliage application, plastic box (symbol N); conditions: 320 g/ha, 3 weeks after application
How it was run: as §3

[12] = application herbicide amount 320 g/ha

SMILES	A (Echinochloa oryzacola Vasing.) herbicidal effect grade [1]	E herbicidal effect grade (Cyperus difformis)	G: Setaria viridis, herbicidal effect grade (Setaria viridis [7])	I: Avena fatua, herbicidal effect grade (Avena fatua)	J: Alopecurus myosuroides, herbicidal effect grade (Alopecurus myosuroides [8])	K: Lolium multiflorum Lam., herbicidal effect grade (Lolium multiflorum Lam. [9])	N: Amaranthus retroflexus, herbicidal effect grade (Amaranthus retroflexus)	R: Veronica persica, herbicidal effect grade (Veronica persica [10])	d: soybean, effect on crop grade (soybean [11])	J: Alopecurus myosuroides, herbicidal effect grade (Alopecurus myosuroides [3]; [12])	K: Lolium multiflorum Lam., herbicidal effect grade (Lolium multiflorum Lam. [4]; [12])	Q: Galium spurium, herbicidal effect grade (Galium spurium; [12])	R: Veronica persica, herbicidal effect grade (Veronica persica [5]; [12])	c: corn, effect on crop grade (corn; [12])	d: soybean, effect on crop grade (soybean [6]; [12])	b: directly sowed rice plant, effect on crop grade (rice; [12])	e: wheat, effect on crop grade (wheat; [12])	further results
CON=C(CC1CC(O)=C(c2c(C)cc(C)cc2C)C1=O)C(F)(F)F (centres unmarked) [1-097]																		Herbicidal effect grade, A: Echinochloa oryzacola Vasing. [1]: 3 (Herbicidal ratio of 40% or higher and lower than 70%); G: Setaria viridis, herbicidal effect grade (Setaria viridis [2]; 320 g/ha): 2 (Herbicidal ratio of 20% or higher and lower than 40%); J: Alopecurus myosuroides, herbicidal effect grade (Alopecurus myosuroides [3]; 320 g/ha): 2 (Herbicidal ratio of 20% or higher and lower than 40%); K: Lolium multiflorum Lam., herbicidal effect grade (Lolium multiflorum Lam. [4]; 320 g/ha): 2 (Herbicidal ratio of 20% or higher and lower than 40%); L: Apera spica-venti, herbicidal effect grade (Apera spica-venti; 320 g/ha): 0 (Herbicidal ratio of 5% or lower (almost no effect)); Q: Galium spurium, herbicidal effect grade (Galium spurium; 320 g/ha): 0 (Herbicidal ratio of 5% or lower (almost no effect)); R: Veronica persica, herbicidal effect grade (Veronica persica [5]; 320 g/ha): 0 (Herbicidal ratio of 5% or lower (almost no effect)); c: corn, effect grade on crop (corn; 320 g/ha): 1 (Herbicidal ratio of 5% or higher and lower than 20%); d: soybean, effect grade on crop (soybean [6]; 320 g/ha): 0 (Herbicidal ratio of 5% or lower (almost no effect)); b: directly sowed rice plant, effect grade on crop (rice; 320 g/ha): 2 (Herbicidal ratio of 20% or higher and lower than 40%); e: wheat, effect grade on crop (wheat; 320 g/ha): 0 (Herbicidal ratio of 5% or lower (almost no effect)); G: Setaria viridis, herbicidal effect (criteria 0-5) (Setaria viridis [7]): 5 (Herbicidal ratio of 90% or more (almost completely withered)); I: Avena fatua, herbicidal effect (criteria 0-5) (Avena fatua): 3 (Herbicidal ratio of 40% or higher and lower than 70%); J: Alopecurus myosuroides, herbicidal effect (criteria 0-5) (Alopecurus myosuroides [8]): 5 (Herbicidal ratio of 90% or more (almost completely withered)); K: Lolium multiflorum Lam., herbicidal effect (criteria 0-5) (Lolium multiflorum Lam. [9]): 5 (Herbicidal ratio of 90% or more (almost completely withered)); R: Veronica persica, herbicidal effect (criteria 0-5) (Veronica persica [10]): 3 (Herbicidal ratio of 40% or higher and lower than 70%); d: soybean, effect on crop (criteria 0-5) (soybean [11]): 3 (Herbicidal ratio of 40% or higher and lower than 70%)
Cc1cc(Br)cc(C)c1C1=C(O)CC(CC(=NOCC(F)(F)F)C2CC2)C1=O (centres unmarked) [9-009]	4 (Herbicidal ratio of 70% or higher and lower than 90%)	4 (Herbicidal ratio of 70% or higher and lower than 90%)	5 (Herbicidal ratio of 90% or more (almost completely withered))	5 (Herbicidal ratio of 90% or more (almost completely withered))	4 (Herbicidal ratio of 70% or higher and lower than 90%)	5 (Herbicidal ratio of 90% or more (almost completely withered))	0 (Herbicidal ratio of 5% or lower (almost no effect))	0 (Herbicidal ratio of 5% or lower (almost no effect))	0 (Herbicidal ratio of 5% or lower (almost no effect))									Herbicidal effect grade, G: Setaria viridis (Setaria viridis [2]; [12]): 1 (Herbicidal ratio of 5% or higher and lower than 20%); Herbicidal effect grade, K: Lolium multiflorum Lam. (Lolium multiflorum Lam. [4]; [12]): 5 (Herbicidal ratio of 90% or more (almost completely withered)); Herbicidal effect grade, L: Apera spica-venti (Apera spica-venti; [12]): 1 (Herbicidal ratio of 5% or higher and lower than 20%); Herbicidal effect grade, Q: Galium spurium (Galium spurium; [12]): 0 (Herbicidal ratio of 5% or lower (almost no effect)); Herbicidal effect grade, R: Veronica persica (Veronica persica [5]; [12]): 1 (Herbicidal ratio of 5% or higher and lower than 20%); Effect on crop grade, c: corn (corn; [12]): 0 (Herbicidal ratio of 5% or lower (almost no effect)); Effect on crop grade, d: soybean (soybean [6]; [12]): 0 (Herbicidal ratio of 5% or lower (almost no effect)); Effect on crop grade, b: directly sowed rice plant (rice; [12]): 0 (Herbicidal ratio of 5% or lower (almost no effect)); Effect on crop grade, e: wheat (wheat; [12]): 0 (Herbicidal ratio of 5% or lower (almost no effect))
CCC(CC1CC(O)=C(c2c(C)cc(Br)cc2OC)C1=O)=NOC (mixture of isomers) [13-001]	5 (Herbicidal ratio of 90% or more (almost completely withered))	4 (Herbicidal ratio of 70% or higher and lower than 90%)	5 (Herbicidal ratio of 90% or more (almost completely withered))	5 (Herbicidal ratio of 90% or more (almost completely withered))	5 (Herbicidal ratio of 90% or more (almost completely withered))	5 (Herbicidal ratio of 90% or more (almost completely withered))	0 (Herbicidal ratio of 5% or lower (almost no effect))	0 (Herbicidal ratio of 5% or lower (almost no effect))	0 (Herbicidal ratio of 5% or lower (almost no effect))	4 (Herbicidal ratio of 70% or higher and lower than 90%)	5 (Herbicidal ratio of 90% or more (almost completely withered))	0 (Herbicidal ratio of 5% or lower (almost no effect))	0 (Herbicidal ratio of 5% or lower (almost no effect))	5 (Herbicidal ratio of 90% or more (almost completely withered))	0 (Herbicidal ratio of 5% or lower (almost no effect))	5 (Herbicidal ratio of 90% or more (almost completely withered))	0 (Herbicidal ratio of 5% or lower (almost no effect))	L: Apera spica-venti, herbicidal effect grade (Apera spica-venti; [12]): 5 (Herbicidal ratio of 90% or more (almost completely withered))
CON=C(CC1CC(OC(=O)N2CCOCC2)=C(c2c(C)cc(C)cc2OC)C1=O)C1CC1 (mixture of isomers) [13-005]	5 (Herbicidal ratio of 90% or more (almost completely withered))	5 (Herbicidal ratio of 90% or more (almost completely withered))	5 (Herbicidal ratio of 90% or more (almost completely withered))	5 (Herbicidal ratio of 90% or more (almost completely withered))	5 (Herbicidal ratio of 90% or more (almost completely withered))	5 (Herbicidal ratio of 90% or more (almost completely withered))	0 (Herbicidal ratio of 5% or lower (almost no effect))	0 (Herbicidal ratio of 5% or lower (almost no effect))	0 (Herbicidal ratio of 5% or lower (almost no effect))	4 (Herbicidal ratio of 70% or higher and lower than 90%)	5 (Herbicidal ratio of 90% or more (almost completely withered))	0 (Herbicidal ratio of 5% or lower (almost no effect))	0 (Herbicidal ratio of 5% or lower (almost no effect))	0 (Herbicidal ratio of 5% or lower (almost no effect))	0 (Herbicidal ratio of 5% or lower (almost no effect))	1 (Herbicidal ratio of 5% or higher and lower than 20%)	1 (Herbicidal ratio of 5% or higher and lower than 20%)	G: Setaria viridis, herbicidal effect grade (Setaria viridis [2]; [12]): 0 (Herbicidal ratio of 5% or lower (almost no effect))
